Literature values, collected in patent US20160354364A1, “Pharmaceutical Compositions” (Alpharma Pharmaceuticals LLC, priority 2008, published 2016).

Conditions: in vivo

In the case of `O=C1CC[C@@]2(O)[C@H]3Cc4ccc(O)c5c4[C@@]2(CCN3CC2CC2)[C@H]1O5` [Naltrexone, naltrexone], the “time of absorption following oral administration” value is listed as ≤ 1 h.
